From article PMC5218480 (PLoS ONE, 2017)

Tested on: MV-4-11 cells
Assay: Gene expression microarray analysis (Affymetrix PrimeView) and GSEA
Format: cell-based, human
Parameters: RFU PODN (11730768_x_at) / Fold change /veh PODN (11730768_x_at) / RFU LINC00158 (11744669_a_at) / Fold change /veh LINC00158 (11744669_a_at) / RFU DUSP10 (11751237_a_at) / Fold change /veh DUSP10 (11751237_a_at) / RFU ID3 (11757404_x_at) / Fold change /veh ID3 (11757404_x_at) / RFU PLEKHG5 (11737974_s_at) / Fold change /veh PLEKHG5 (11737974_s_at) / RFU LRRC4B (11730491_at) / Fold change /veh LRRC4B (11730491_at) / RFU GIMAP4 (11747438_a_at) / Fold change /veh GIMAP4 (11747438_a_at) / RFU KRT8 (11758183_x_at) / Fold change /veh KRT8 (11758183_x_at) / RFU CNN1 (11734310_a_at) / Fold change /veh CNN1 (11734310_a_at) / RFU VPS37D (11726825_at) / Fold change /veh VPS37D (11726825_at) / RFU C10orf10 (11716522_x_at) / Fold change /veh C10orf10 (11716522_x_at) / RFU KIR2DL2 /// KIR2DL4 /// KIR2DL5A /// KIR2DL5B /// KIR2DS1 /// KIR2DS2 /// KIR2DS3 /// KIR2DS4 /// KIR3DL3 /// KIR3DL3 /// KIR3DS1 (11738374_at) / Fold change /veh KIR2DL2 /// KIR2DL4 /// KIR2DL5A /// KIR2DL5B /// KIR2DS1 /// KIR2DS2 /// KIR2DS3 /// KIR2DS4 /// KIR3DL3 /// KIR3DL3 /// KIR3DS1 (11738374_at) / RFU C1QL1 (11718748_at) / Fold change /veh C1QL1 (11718748_at) / RFU TMPRSS4 (11747572_a_at) / Fold change /veh TMPRSS4 (11747572_a_at) / RFU HAMP (11756126_x_at) / Fold change /veh HAMP (11756126_x_at) / RFU RNFT2 (11725882_a_at) / Fold change /veh RNFT2 (11725882_a_at) / RFU NR4A2 (11747474_a_at) / Fold change /veh NR4A2 (11747474_a_at) / RFU ABCC12 (11746883_a_at) / Fold change /veh ABCC12 (11746883_a_at) / RFU TMEM136 (11760407_x_at) / Fold change /veh TMEM136 (11760407_x_at) / RFU CLDN22 /// WWC2 (11732394_at) / Fold change /veh CLDN22 /// WWC2 (11732394_at) / RFU HLA-DPB1 (11760878_x_at) / Fold change /veh HLA-DPB1 (11760878_x_at) / RFU SPINT1 (11716480_a_at) / Fold change /veh SPINT1 (11716480_a_at) / RFU GAP43 (11754022_s_at) / Fold change /veh GAP43 (11754022_s_at) / RFU A4GNT (11735810_at) / Fold change /veh A4GNT (11735810_at) / RFU PRB3 (11715151_x_at) / Fold change /veh PRB3 (11715151_x_at) / RFU TUBB4B (11761932_at) / Fold change /veh TUBB4B (11761932_at) / RFU CAPN14 (11732068_a_at) / Fold change /veh CAPN14 (11732068_a_at) / RFU TMCC2 (11721928_a_at) / Fold change /veh TMCC2 (11721928_a_at) / RFU IRGQ (11745062_a_at) / Fold change /veh IRGQ (11745062_a_at) / RFU FAM174B (11720279_a_at) / Fold change /veh FAM174B (11720279_a_at) / RFU TMPRSS4 (11748680_a_at) / Fold change /veh TMPRSS4 (11748680_a_at) / RFU FAM212B (11763350_a_at) / Fold change /veh FAM212B (11763350_a_at) / RFU PLEKHG5 (11743358_a_at) / Fold change /veh PLEKHG5 (11743358_a_at) / RFU ZSCAN30 (11745921_a_at) / Fold change /veh ZSCAN30 (11745921_a_at) / RFU CMKLR1 (11741424_a_at) / Fold change /veh CMKLR1 (11741424_a_at) / RFU LOC101060620 /// MAPK8IP1 (11723275_at) / Fold change /veh LOC101060620 /// MAPK8IP1 (11723275_at) / RFU SPTSSB (11747773_x_at) / Fold change /veh SPTSSB (11747773_x_at) / RFU PRSS12 (11739890_at) / Fold change /veh PRSS12 (11739890_at) / RFU BIN1 (11741810_x_at) / Fold change /veh BIN1 (11741810_x_at) / RFU WNT11 (11732464_a_at) / Fold change /veh WNT11 (11732464_a_at) / RFU C10orf10 (11716521_a_at) / Fold change /veh C10orf10 (11716521_a_at) / RFU C5orf56 (11738089_at) / Fold change /veh C5orf56 (11738089_at) / RFU CYB561 (11721691_x_at) / Fold change /veh CYB561 (11721691_x_at) / RFU ANKRD19P (11752326_a_at) / Fold change /veh ANKRD19P (11752326_a_at) / RFU OR2T12 /// OR2T33 /// OR2T8 (11738714_s_at) / Fold change /veh OR2T12 /// OR2T33 /// OR2T8 (11738714_s_at) / RFU VCAN (11748164_a_at) / Fold change /veh VCAN (11748164_a_at) / RFU JSRP1 (11732532_at) / Fold change /veh JSRP1 (11732532_at) / RFU KRTAP10-11 (11738290_x_at) / Fold change /veh KRTAP10-11 (11738290_x_at) / RFU MYO3A (11730013_a_at) / Fold change /veh MYO3A (11730013_a_at) / RFU EBF3 (11725865_a_at) / Fold change /veh EBF3 (11725865_a_at) / RFU CAMK2N1 (11719241_x_at) / Fold change /veh CAMK2N1 (11719241_x_at) / RFU C5orf56 (11738088_a_at) / Fold change /veh C5orf56 (11738088_a_at) / RFU OLFML3 (11715873_a_at) / Fold change /veh OLFML3 (11715873_a_at) / RFU LOC100653217 /// NTM (11731650_a_at) / Fold change /veh LOC100653217 /// NTM (11731650_a_at) / RFU MAPK11 (11762145_a_at) / Fold change /veh MAPK11 (11762145_a_at) / RFU FIZ1 (11724087_x_at) / Fold change /veh FIZ1 (11724087_x_at) / RFU OASL (11726364_x_at) / Fold change /veh OASL (11726364_x_at) / RFU SOX15 (11748057_x_at) / Fold change /veh SOX15 (11748057_x_at) / RFU CD79A (11719716_a_at) / Fold change /veh CD79A (11719716_a_at) / RFU HIST1H1D (11736915_at) / Fold change /veh HIST1H1D (11736915_at) / RFU CASKIN2 (11723855_a_at) / Fold change /veh CASKIN2 (11723855_a_at) / RFU LOC730098 (11760151_x_at) / Fold change /veh LOC730098 (11760151_x_at) / RFU OR4N2 (11742367_at) / Fold change /veh OR4N2 (11742367_at) / RFU PRRT2 (11749266_a_at) / Fold change /veh PRRT2 (11749266_a_at) / RFU SNX32 (11753110_a_at) / Fold change /veh SNX32 (11753110_a_at) / RFU CDHR5 (11726645_a_at) / Fold change /veh CDHR5 (11726645_a_at) / RFU RCAN1 (11760418_a_at) / Fold change /veh RCAN1 (11760418_a_at) / RFU FAM167A (11723789_a_at) / Fold change /veh FAM167A (11723789_a_at) / RFU FAM26E (11764081_at) / Fold change /veh FAM26E (11764081_at) / RFU ISYNA1 (11749810_s_at) / Fold change /veh ISYNA1 (11749810_s_at) / RFU ACY1 (11761880_at) / Fold change /veh ACY1 (11761880_at) / RFU 11764098_at / Fold change /veh 11764098_at / RFU SAMD14 (11745864_x_at) / Fold change /veh SAMD14 (11745864_x_at) / RFU NPB (11741838_a_at) / Fold change /veh NPB (11741838_a_at) / RFU TMPRSS6 (11731388_a_at) / Fold change /veh TMPRSS6 (11731388_a_at) / RFU KRTAP10-2 (11738614_at) / Fold change /veh KRTAP10-2 (11738614_at) / RFU ARHGAP8 /// PRR5-ARHGAP8 (11727945_x_at) / Fold change /veh ARHGAP8 /// PRR5-ARHGAP8 (11727945_x_at) / RFU KRTAP5-7 /// NADSYN1 (11734609_at) / Fold change /veh KRTAP5-7 /// NADSYN1 (11734609_at) / RFU RASL12 (11751679_a_at) / Fold change /veh RASL12 (11751679_a_at) / RFU CDKN2B (11736163_a_at) / Fold change /veh CDKN2B (11736163_a_at) / RFU PRF1 (11729649_at) / Fold change /veh PRF1 (11729649_at) / RFU, ZNF638 /// ZNF638-IT1 / Fold change vs veh, ZNF638 /// ZNF638-IT1 / RFU, PANK3 / Fold change vs veh, PANK3 / RFU, SH3YL1 / Fold change vs veh, SH3YL1 / RFU, ZEB2 / Fold change vs veh, ZEB2 / RFU, NRIP1 / Fold change vs veh, NRIP1 / RFU, PTTG1IP / Fold change vs veh, PTTG1IP / RFU, CAPN2 / Fold change vs veh, CAPN2 / RFU, MED14 / Fold change vs veh, MED14 / RFU, SNORA58 / Fold change vs veh, SNORA58 / RFU, C1orf63 / Fold change vs veh, C1orf63 / RFU, LRRFIP1 / Fold change vs veh, LRRFIP1 / RFU, NDUFAF7 / Fold change vs veh, NDUFAF7 / RFU, SLC12A2 / Fold change vs veh, SLC12A2 / RFU, IBTK / Fold change vs veh, IBTK / RFU, ESF1 / Fold change vs veh, ESF1 / Fold change vs veh, TMEM50B / RFU, TAOK1 / Fold change vs veh, TAOK1 / RFU, ACBD3 / Fold change vs veh, ACBD3 / RFU, TMA16 / Fold change vs veh, TMA16 / RFU, RWDD3 / Fold change vs veh, RWDD3 / RFU, BCAT1 / Fold change vs veh, BCAT1 / RFU, EDEM3 / Fold change vs veh, EDEM3 / RFU, TMEM33 / Fold change vs veh, TMEM33 / RFU, WDR75 / Fold change vs veh, WDR75 / RFU, AHCTF1 / Fold change vs veh, AHCTF1 / RFU, TFRC / Fold change vs veh, TFRC / RFU, ZDHHC17 / Fold change vs veh, ZDHHC17 / RFU, NOM1 / Fold change vs veh, NOM1 / RFU, ARL8B / Fold change vs veh, ARL8B / RFU, ZBTB11 / Fold change vs veh, ZBTB11 / RFU, TAMM41 / Fold change vs veh, TAMM41 / RFU, KIAA1704 /// LOC100996395 / Fold change vs veh, KIAA1704 /// LOC100996395 / RFU, ING1 / Fold change vs veh, ING1 / RFU, TRMT61B / Fold change vs veh, TRMT61B / RFU, FUBP3 / Fold change vs veh, FUBP3 / RFU, TP53 / Fold change vs veh, TP53 / RFU, TNKS2 / Fold change vs veh, TNKS2 / RFU, ZFP14 / Fold change vs veh, ZFP14 / RFU, ACTR2 / Fold change vs veh, ACTR2 / RFU, PPP3R1 / Fold change vs veh, PPP3R1 / RFU, PIK3R1 / Fold change vs veh, PIK3R1 / RFU, HNRNPA1 / Fold change vs veh, HNRNPA1 / RFU, RNF170 / Fold change vs veh, RNF170 / RFU, ZNF28 / Fold change vs veh, ZNF28 / RFU, RNGTT / Fold change vs veh, RNGTT / RFU, OGT / Fold change vs veh, OGT / RFU, BRD1 / Fold change vs veh, BRD1 / RFU, MARS / Fold change vs veh, MARS / RFU, ZNF655 / Fold change vs veh, ZNF655 / RFU, FAHD1 / Fold change vs veh, FAHD1 / RFU, BDP1 / Fold change vs veh, BDP1 / RFU, LRRCC1 / Fold change vs veh, LRRCC1 / RFU, ARID1A / Fold change vs veh, ARID1A / RFU, ZNF146 / Fold change vs veh, ZNF146 / RFU, ZNF330 / Fold change vs veh, ZNF330 / RFU, GPN3 / Fold change vs veh, GPN3 / RFU, C9orf123 / Fold change vs veh, C9orf123 / RFU, N4BP2L2 / Fold change vs veh, N4BP2L2 / RFU, ARFIP1 / Fold change vs veh, ARFIP1 / RFU, FAM179B / Fold change vs veh, FAM179B / RFU, BCL10 / Fold change vs veh, BCL10 / RFU, UHRF1BP1L / Fold change vs veh, UHRF1BP1L / RFU, BET1 / Fold change vs veh, BET1 / RFU, CNOT2 / Fold change vs veh, CNOT2 / RFU, ZNF268 / Fold change vs veh, ZNF268 / Fold change vs veh, ZNF507 / RFU, DGCR2 / Fold change vs veh, DGCR2 / RFU, WDSUB1 / Fold change vs veh, WDSUB1 / Fold change vs veh, HSP90B1 /// MIR3652 / RFU, ADSS / Fold change vs veh, ADSS / RFU, GK / Fold change vs veh, GK / RFU, ZNF148 / Fold change vs veh, ZNF148 / RFU, TAF9 / Fold change vs veh, TAF9 / RFU, SLC1A5 / Fold change vs veh, SLC1A5 / RFU, SLMO2 / Fold change vs veh, SLMO2 / RFU, ABCC4 / Fold change vs veh, ABCC4 / RFU, LOC101060439 /// RAP1B / Fold change vs veh, LOC101060439 /// RAP1B / RFU, RFX7 / Fold change vs veh, RFX7 / RFU, GTPBP10 / Fold change vs veh, GTPBP10 / RFU, CNEP1R1 / Fold change vs veh, CNEP1R1 / RFU, BIVM-ERCC5 /// ERCC5 / Fold change vs veh, BIVM-ERCC5 /// ERCC5 / RFU, ILF3 / Fold change vs veh, ILF3 / RFU 11762660_at / Fold change /veh 11762660_at / RFU VCAN (11757783_s_at) / Fold change /veh VCAN (11757783_s_at) / RFU DDX43 (11728927_at) / Fold change /veh DDX43 (11728927_at) / RFU KRT8 (11758188_x_at) / Fold change /veh KRT8 (11758188_x_at) / RFU NKD1 (11759106_at) / Fold change /veh NKD1 (11759106_at) / RFU SRD5A1 (11742802_a_at) / Fold change /veh SRD5A1 (11742802_a_at) / RFU TPSAB1 /// TPSB2 (11721975_s_at) / Fold change /veh TPSAB1 /// TPSB2 (11721975_s_at) / RFU GSTM3 (11746129_a_at) / Fold change /veh GSTM3 (11746129_a_at) / RFU IL23R (11737362_x_at) / Fold change /veh IL23R (11737362_x_at) / RFU TMEM51 (11727254_a_at) / Fold change /veh TMEM51 (11727254_a_at) / RFU PIWIL2 (11732686_x_at) / Fold change /veh PIWIL2 (11732686_x_at) / RFU ORM1 (11744905_x_at) / Fold change /veh ORM1 (11744905_x_at) / RFU CCDC152 (11743942_at) / Fold change /veh CCDC152 (11743942_at) / RFU ECM1 (11717891_a_at) / Fold change /veh ECM1 (11717891_a_at) / RFU IL23R (11748794_a_at) / Fold change /veh IL23R (11748794_a_at) / RFU TNFAIP8L3 (11732012_x_at) / Fold change /veh TNFAIP8L3 (11732012_x_at) / RFU MBOAT4 (11741988_at) / Fold change /veh MBOAT4 (11741988_at) / RFU 11764193_at / Fold change /veh 11764193_at / RFU TMEM53 (11763286_at) / Fold change /veh TMEM53 (11763286_at) / RFU MAGEB2 (11727129_at) / Fold change /veh MAGEB2 (11727129_at) / RFU TMEM200A (11744735_a_at) / Fold change /veh TMEM200A (11744735_a_at) / RFU CCDC152 (11751479_a_at) / Fold change /veh CCDC152 (11751479_a_at) / RFU FAM211A (11726209_a_at) / Fold change /veh FAM211A (11726209_a_at) / RFU RGS16 (11746705_a_at) / Fold change /veh RGS16 (11746705_a_at) / RFU VCAN (11755009_s_at) / Fold change /veh VCAN (11755009_s_at) / RFU RHOB (11743442_s_at) / Fold change /veh RHOB (11743442_s_at) / RFU RGS16 (11720943_a_at) / Fold change /veh RGS16 (11720943_a_at) / RFU RGS16 (11720944_at) / Fold change /veh RGS16 (11720944_at) / RFU, VPS4B / Fold change vs veh, VPS4B / RFU, CREB1 / Fold change vs veh, CREB1 / RFU, DNAJC13 / Fold change vs veh, DNAJC13 / RFU, GNAQ / Fold change vs veh, GNAQ / RFU, CDK5R1 / Fold change vs veh, CDK5R1 / RFU, ZRANB3 / Fold change vs veh, ZRANB3 / RFU, CUL4A / Fold change vs veh, CUL4A / RFU, CCNY / Fold change vs veh, CCNY / RFU, UFL1 / Fold change vs veh, UFL1 / RFU, COG3 / Fold change vs veh, COG3 / RFU, DIAPH2 / Fold change vs veh, DIAPH2 / RFU, SKA2 / Fold change vs veh, SKA2 / RFU, AFF3 / Fold change vs veh, AFF3 / RFU, LMF1 / Fold change vs veh, LMF1 / RFU, IPO11 / Fold change vs veh, IPO11 / RFU, DFFB / Fold change vs veh, DFFB / RFU, FOXP1 / Fold change vs veh, FOXP1 / RFU, CARD8 / Fold change vs veh, CARD8 / RFU, STRN3 / Fold change vs veh, STRN3 / RFU, ADK / Fold change vs veh, ADK / RFU, RASSF2 / Fold change vs veh, RASSF2 / RFU, WIPF1 / Fold change vs veh, WIPF1 / RFU, LARP1B / Fold change vs veh, LARP1B / RFU, RASA1 / Fold change vs veh, RASA1 / RFU, RB1 / Fold change vs veh, RB1 / RFU, PPFIA1 / Fold change vs veh, PPFIA1 / RFU, MAT2A / Fold change vs veh, MAT2A / RFU, CCT5 / Fold change vs veh, CCT5 / RFU, WDR92 / Fold change vs veh, WDR92 / RFU, CUX1 / Fold change vs veh, CUX1 / RFU, TTC7A / Fold change vs veh, TTC7A / RFU, TMEM135 / Fold change vs veh, TMEM135 / RFU, DEPTOR / Fold change vs veh, DEPTOR / RFU, CPM / Fold change vs veh, CPM / RFU, DNAJB6 / Fold change vs veh, DNAJB6 / RFU, CACNA2D3 / Fold change vs veh, CACNA2D3 / RFU, DTX4 / Fold change vs veh, DTX4 / RFU, TFCP2 / Fold change vs veh, TFCP2 / RFU, GMCL1 /// GMCL1P1 / Fold change vs veh, GMCL1 /// GMCL1P1 / RFU, AEBP2 / Fold change vs veh, AEBP2 / RFU, SNHG1 /// SNORD22 /// SNORD25 /// SNORD26 /// SNORD27 /// SNORD28 /// SNORD29 /// SNORD31 / Fold change vs veh, SNHG1 /// SNORD22 /// SNORD25 /// SNORD26 /// SNORD27 /// SNORD28 /// SNORD29 /// SNORD31 / Fold change (Aza/veh), C12orf56 (ProbeSet 11735607_a_at) / Fold change (ACY-1035/veh), C12orf56 (ProbeSet 11735607_a_at) / Fold change (Aza/veh), FGFR1OP (ProbeSet 11751329_s_at) / Fold change (ACY-1035/veh), FGFR1OP (ProbeSet 11751329_s_at) / Fold change (Aza/veh), VPS36 (ProbeSet 11739960_a_at) / Fold change (ACY-1035/veh), VPS36 (ProbeSet 11739960_a_at) / RFU SYPL1 (11715823_x_at) / Fold change /veh SYPL1 (11715823_x_at) / RFU IGFBP7 (11715501_s_at) / Fold change /veh IGFBP7 (11715501_s_at) / RFU REEP3 (11722064_at) / Fold change /veh REEP3 (11722064_at) / RFU IGLL1 (11728026_x_at) / Fold change /veh IGLL1 (11728026_x_at): dose or concentration left out as unconfirmed
Details: ProbeSet 11753623_s_at; LIST D

Nc1ccc(-c2cccs2)cc1NC(=O)c1ccc2c(c1)cc(C1CC1)n2CCN1CCOCC1 [ACY-1035]
Fold change vs veh, LOC101060439 /// RAP1B: 0.85
